Results published in patent US11548855B2, “Pyrazole amide compound and application thereof, and fungicide” (Shandong United Pesticide Industry Co. Ltd., priority 2017, dated 2023).

What was measured:
[1] = system: corn rust (Puccinia sorghi); assay: Greenhouse pot test, corn rust; type: in vivo; details: Puccinia sorghi, 168 h, read-out: Control effect (%) Corn rust
Experimental: Test method: each of the test compounds in Table 1 was dispensed to 5 wt % emulsifiable concentrate (hereinafter referred to as 5% EC). The greenhouse pot test was used in each experiment, and the effective concentrations of each compound were illustrated in Table 1.
Corn rust: two-three leaf stage potted corn seedling with uniform growth was selected and made foliar spray treatment with 5% EC, the blank control sprayed with clean water was additionally arranged, three replicates were carried out. After 24 h, the leaves of the host plants were inoculated with sporangial suspensions of the fungi corn rust (Puccinia sorghi), the plants were stored in humidity chamber (temperature: lighting 25° C., dark 20° C., relative humidity 95-100%) and then transferred to greenhouse (25±1° C.) 24 h after infection. After 7 days, the screening results were investigated according to the disease incidence condition of blank control.
The investigation method: “Guidelines for the field efficacy trials of pesticides” was adopted as the grading standard, and the control effect in a unit of % was calculated based on the disease index. Disease index=Σ(number of diseased leaves at each grade×relative grade value)×100/(total number of leaves×9); Control effect (%)=(disease index of control−disease index of treated)×100/disease index of control;
(§1) The compounds provided by the present disclosure and some control compounds were tested by the same methods in the Test example 1, except that the effective concentrations of the compounds in this Test example are shown in Table 2.

[2] = system: rice sheath blight fungi (Rhizoctonia solami); assay: Greenhouse pot test, rice sheath blight; type: in vivo
Experimental: as §1
In addition, the test method for rice sheath blight as following steps:
The potted rice seedling with uniform growth was selected, and dried in the shade for 24 h after spray treatment, then inoculated 3 blocks of 0.25 cm^2 rice sheath blight fungi (Rhizoctonia solami) at the base of seedling by clamp inoculation bacterium block method. The test materials inoculated were moved into greenhouse (temperature: lighting 28° C., dark 25° C., relative humidity 95%), after 7 days, investigate 5 leaves of per block treatment, the grading investigation was carried out according to the disease incidence condition of sheaths and leaves of rice, “Guidelines for the field efficacy trials of pesticides” was adopted as the grading standard, the disease index was calculated according to the grading standard, and the control effect in a unit of % was calculated according to disease index.

Cn1cc(C(=O)Nc2ccccc2Oc2ccc(C(F)(F)F)cc2C(F)(F)F)c(C(F)F)n1 [Compound 1]
pest or weed control at 1.5625 µg/mL ([1]; 1.5625 mg/L): 100% | pest or weed control at 2.5 µg/mL ([1]; 2.5 mg/L): 100% | pest or weed control at 3.125 µg/mL ([1]; 3.1250 mg/L): 100% | pest or weed control at 6.25 µg/mL ([1]; 6.25 mg/L): 100% | pest or weed control at 10 µg/mL ([1]; 10 mg/L): 100% | pest or weed control at 25 µg/mL ([1]; 25 mg/L): 100% | pest or weed control at 100 µg/mL ([1]; 100 mg/L): 100% | Control effect (%) Rice sheath blight ([2]; 0.625 mg/L): 75% | Control effect (%) Rice sheath blight ([2]; 1 mg/L): 80% | Control effect (%) Rice sheath blight ([2]; 1.5625 mg/L): 85% | Control effect (%) Rice sheath blight ([2]; 2.5 mg/L): 90% | Control effect (%) Rice sheath blight ([2]; 3.1250 mg/L): 100% | Control effect (%) Rice sheath blight ([2]; 10 mg/L): 100%
